Source: US6777442B2, “Diphenyl derivatives” (Bayer Aktiengesellschaft, priority 2001, dated 2004)

Assay: T3 promoter assay cell test (luciferase reporter)
Format: cell-based
Settings: Homo sapiens; HepG2 cells, luciferase induction, costimulator retinoic acid, incubation 48 or 72 hours
Protocol: The activity of the compounds according to the invention can be examined, for example, in vitro by the known T3 promoter assay cell test, described below:
The test is carried out using a stabily transfected human HepG2 hepatocarcinoma cell which expresses a luciferase gene under the control of a thyroid-hormone-regulated promoter. The vector used for transfection carries, upstream of the luciferase gene, a minimal thymidine kinase promoter with a thyroid-hormone-responsive element (TRE) comprising two inverted palindromes of in each case 12 bp and one 8 bp spacer.
For the test, the cell cultures are sown in 96-well plates in Eagle's Minimal Essential Medium, with the following additives: glutamine, tricine, [N-(tris-hydroxymethyl)-methyl)glycine], sodium pyruvate, non-essential amino acids (L-Ala, L-Asn, L-Asp, L-Pro, L-Ser, L-Glu, Gly), insulin, selenium and transferrin. The cultures are grown at 37° C. in a 10% CO2 atmosphere for 48 hours. Serial dilutions of test substance or reference compound (T3, T4) and the costimulator retinoic acid are then added to the test cultures, which are then incubated as above for a further 48 or 72 hours. […] To determine the luciferase, induced by T3 or other substances, the cells are then lyzed by addition of a triton- and luciferin-containing buffer (from Promega) and immediately measured luminometrically. For each compound, the EC50 is calculated. […]

EC50: 2 nM
SMILES: Cc1cc(OCC(=O)O)cc(C)c1Cc1ccc(O)c(S(=O)(=O)c2ccc(F)cc2)c1 [Example 2, (4-{3-[(4-Fluorophenyl)sulphonyl]-4-hydroxybenzyl}-3,5-dimethylphenoxy)acetic acid]
